Earlier results, collected in patent publication US20070092561A1, “Water-Soluble Aspirin Composition” (priority 2005, published 2007).
Where two headings read alike, the source gives them in different places.

SMILES: CC(=O)Oc1ccccc1C(=O)O [aspirin]
- occurrence of side-effects (gastric irritation, inflammation, heartburn, nausea, pain) (aspirin users): 2-10%
- occurrence of side-effects (gastric irritation, inflammation, heartburn, nausea, pain) (in chronic arthritis): about 25%
